Reference: publication PMC8286641 (European Journal of Drug Metabolism and Pharmacokinetics, 2021)

Key:
OCT1 = details: cited from earlier work
ENT1 = target: T1, ENT1 (Homo sapiens, UniProt Q99808); experiment: Inhibition of ENT1-mediated [3H]-uridine uptake in HAP1 ENT2-KO cells; type: cell-based; details: 10 µM TKI
T1 sequence (Q99808 1-456): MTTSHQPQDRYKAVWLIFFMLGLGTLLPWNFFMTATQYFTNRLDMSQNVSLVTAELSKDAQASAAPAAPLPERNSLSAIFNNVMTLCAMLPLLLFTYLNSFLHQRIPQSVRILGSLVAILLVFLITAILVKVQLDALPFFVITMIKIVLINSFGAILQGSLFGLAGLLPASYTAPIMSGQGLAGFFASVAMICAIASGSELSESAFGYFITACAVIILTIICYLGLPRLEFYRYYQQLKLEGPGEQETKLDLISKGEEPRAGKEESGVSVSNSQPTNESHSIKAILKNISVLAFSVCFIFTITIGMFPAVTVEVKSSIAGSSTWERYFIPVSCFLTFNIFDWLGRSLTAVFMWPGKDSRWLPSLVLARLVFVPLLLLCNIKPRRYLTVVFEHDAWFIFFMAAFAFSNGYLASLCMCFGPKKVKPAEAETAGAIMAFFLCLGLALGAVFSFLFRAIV

[1] = test system: organic anion transporter (OAT) 3 (SLC22A8); details: read-out: IC50 OAT3; cited from earlier work
MATE2-K = details: read-out: IC50 MATE2-K; cited from earlier work
MATE1 = details: read-out: IC50 MATE1; cited from earlier work
OCT2 = details: read-out: IC50 OCT2; cited from earlier work

N#CC[C@H](C1CCCC1)n1cc(-c2ncnc3[nH]ccc23)cn1 [Ruxolitinib, ruxolitinib]
Effect on OCT1 activity (in words) (OCT1): fails to alter that of OCT1
% inhibition of ENT1 activity (mean ± SD) (ENT1; HAP1-ENT2 KO cells, [3H]-uridine uptake 5 min at 37 °C): 34.1 ± 13.2 %
ENT1 inhibitor class (ENT1; HAP1 ENT2-KO cells): weak (decreased ENT1 activity by less than 35% and can thus be considered as weak ENT1 inhibitors)
IC50 [1]: < 10 µM
IC50 (MATE2-K): < 10 µM
IC50 (MATE1): < 10 µM
IC50 (OCT2): < 10 µM
